Laboratory results published in ChEMBL document CHEMBL5537145, “Design, synthesis and evaluation of novel UDCA-aminopyrimidine hybrids as ATX inhibitors for the treatment of hepatic and pulmonary fibrosis” (Eur J Med Chem, 2024).
The source made the active and inactive calls.

Experiments:
CCC-HPF-1 [1] = assay: Cytotoxicity against human CCC-HPF-1 cells assessed as reduction in cell viability at 2.5 to 80 uM incubated for 48 hrs by MTT assay; assay type: toxicity, cell-based; conditions: ccc-hpf-1, 48 h, dose 2.5-80 µM
CCC-HPF-1 [2] = assay: Effect on total Smad3 level in TGF-beta1 stimulated human CCC-HPF-1 cells at 5 to 20 uM incubated for 48 hrs by Western blotting analysis; assay type: functional, cell-based; conditions: dose 5-20 µM
LX-2 [3] = assay: Anti-hepatic fibrosis activity against TGF-beta1 stimulated human LX2 cells assessed as reduction in COL1A1 mRNA expression level at 5 to 20 uM incubated for 48 hrs by quantitative real-time PCR analysis; assay type: functional, cell-based; conditions: dose 5-20 µM
CCC-HPF-1 [4] = assay: Anti-pulmonary fibrosis activity against TGF-beta1 stimulated human CCC-HPF-1 cells assessed as reduction in FN protein expression level at 5 to 20 uM incubated for 48 hrs by Western blotting analysis; assay type: functional, cell-based; conditions: dose 5-20 µM
CCC-HPF-1 [5] = assay: Anti-pulmonary fibrosis activity against TGF-beta1 stimulated human CCC-HPF-1 cells assessed as reduction in COL1A1 protein expression level at 5 to 20 uM incubated for 48 hrs by Western blotting analysis; assay type: functional, cell-based; conditions: dose 5-20 µM
LX-2 [6] = assay: Anti-hepatic fibrosis activity against TGF-beta1 stimulated human LX2 cells assessed as reduction in Smad3 phosphorylation incubated for 48 hrs by Western blotting analysis; assay type: functional, cell-based; conditions: dose 5-20 µM
CCC-HPF-1 [7] = assay: Anti-pulmonary fibrosis activity against TGF-beta1 stimulated human CCC-HPF-1 cells assessed as inhibition of Smad2/3 nuclear translocation at 10 uM incubated for 48 hrs by DAPI staining based immunofluorescence analysis; assay type: functional, cell-based
LX-2 [8] = assay: Anti-hepatic fibrosis activity against TGF-beta1 stimulated human LX2 cells assessed as reduction in COL1A1 protein expression level at 5 to 20 uM incubated for 48 hrs by Western blotting analysis; assay type: functional, cell-based; conditions: dose 5-20 µM
CCC-HPF-1 [9] = assay: Effect on total Smad2 level in TGF-beta1 stimulated human CCC-HPF-1 cells at 5 to 20 uM incubated for 48 hrs by Western blotting analysis; assay type: functional, cell-based; conditions: dose 5-20 µM
CCC-HPF-1 [10] = assay: Anti-pulmonary fibrosis activity against TGF-beta1 stimulated human CCC-HPF-1 cells assessed as reduction in alpha-SMA mRNA expression level at 5 to 20 uM incubated for 48 hrs by quantitative real-time PCR analysis; assay type: functional, cell-based; conditions: dose 5-20 µM
LX-2 [11] = assay: Cytotoxicity against human LX2 cells assessed as reduction in cell viability at 2.5 to 80 uM incubated for 48 hrs by MTT assay; assay type: toxicity, cell-based; conditions: lx-2, 48 h, dose 2.5-80 µM
LX-2 [12] = assay: Effect on total Smad2 level in TGF-beta1 stimulated human LX2 cells at 5 to 20 uM incubated for 48 hrs by Western blotting analysis; assay type: functional, cell-based; conditions: dose 5-20 µM
LX-2 [13] = assay: Anti-hepatic fibrosis activity against TGF-beta1 stimulated human LX2 cells assessed as reduction in Smad2 phosphorylation incubated for 48 hrs by Western blotting analysis; assay type: functional, cell-based; conditions: dose 5-20 µM
CCC-HPF-1 [14] = assay: Anti-pulmonary fibrosis activity against TGF-beta1 stimulated human CCC-HPF-1 cells assessed as reduction in FN mRNA expression level at 5 to 20 uM incubated for 48 hrs by quantitative real-time PCR analysis; assay type: functional, cell-based; conditions: dose 5-20 µM
CCC-HPF-1 [15] = assay: Anti-migratory activity against TGF-beta1 stimulated human CCC-HPF-1 cells at 10 uM incubated for 24 hrs by light microscopic analysis; assay type: functional, cell-based
LX-2 [16] = assay: Effect on total Smad3 level in TGF-beta1 stimulated human LX2 cells at 5 to 20 uM incubated for 48 hrs by Western blotting analysis; assay type: functional, cell-based; conditions: dose 5-20 µM
LX-2 [17] = assay: Anti-hepatic fibrosis activity against TGF-beta1 stimulated human LX2 cells assessed as reduction in alpha-SMA protein expression level at 5 to 20 uM incubated for 48 hrs by Western blotting analysis; assay type: functional, cell-based; conditions: dose 5-20 µM
LX-2 [18] = assay: Anti-hepatic fibrosis activity against TGF-beta1 stimulated human LX2 cells assessed as reduction in FN protein expression level at 5 to 20 uM incubated for 48 hrs by Western blotting analysis; assay type: functional, cell-based; conditions: dose 5-20 µM
CCC-HPF-1 [19] = assay: Anti-pulmonary fibrosis activity against TGF-beta1 stimulated human CCC-HPF-1 cells assessed as reduction in alpha-SMA protein expression level at 5 to 20 uM incubated for 48 hrs by Western blotting analysis; assay type: functional, cell-based; conditions: dose 5-20 µM
CCC-HPF-1 [20] = assay: Anti-pulmonary fibrosis activity against TGF-beta1 stimulated human CCC-HPF-1 cells assessed as reduction in Smad2 phosphorylation incubated for 48 hrs by Western blotting analysis; assay type: functional, cell-based; conditions: dose 5-20 µM
Autotaxin [21] = biological target: T1, Autotaxin (Homo sapiens, UniProt Q13822); assay: Inhibition of human ATX in using LPC as substrate by fluorescence based microplate reader assay
LX-2 [22] = assay: Anti-migratory activity against TGF-beta1 stimulated human LX2 cells at 10 uM incubated for 24 hrs by light microscopic analysis; assay type: functional, cell-based
CCC-HPF-1 [23] = assay: Anti-pulmonary fibrosis activity against TGF-beta1 stimulated human CCC-HPF-1 cells assessed as reduction in Smad3 phosphorylation incubated for 48 hrs by Western blotting analysis; assay type: functional, cell-based; conditions: dose 5-20 µM
LX-2 [24] = assay: Anti-hepatic fibrosis activity against TGF-beta1 stimulated human LX2 cells assessed as reduction in FN mRNA expression level at 5 to 20 uM incubated for 48 hrs by quantitative real-time PCR analysis; assay type: functional, cell-based; conditions: dose 5-20 µM
LX-2 [25] = assay: Anti-hepatic fibrosis activity against TGF-beta1 stimulated human LX2 cells assessed as reduction in alpha-SMA mRNA expression level at 5 to 20 uM incubated for 48 hrs by quantitative real-time PCR analysis; assay type: functional, cell-based; conditions: dose 5-20 µM
Autotaxin [26] = biological target: T1, Autotaxin; assay: Potency index, ratio of GLPG-1690 IC50 to test compound IC50 for inhibition of human ATX in using LPC as substrate by fluorescence based microplate reader assay
LX-2 [27] = assay: Anti-hepatic fibrosis activity against TGF-beta1 stimulated human LX2 cells assessed as inhibition of Smad2/3 nuclear translocation at 10 uM incubated for 48 hrs by DAPI staining based immunofluorescence analysis; assay type: functional, cell-based
CCC-HPF-1 [28] = assay: Anti-pulmonary fibrosis activity against TGF-beta1 stimulated human CCC-HPF-1 cells assessed as reduction in COL1A1 mRNA expression level at 5 to 20 uM incubated for 48 hrs by quantitative real-time PCR analysis; assay type: functional, cell-based; conditions: dose 5-20 µM

C[C@H](CCC(=O)N1CCc2nc(NCCc3ccc(Cl)cc3)ncc2C1)[C@H]1CC[C@H]2[C@@H]3[C@@H](O)C[C@@H]4C[C@H](O)CC[C@]4(C)[C@H]3CC[C@]12C
active: Activity (LX-2 [3]) | Activity (CCC-HPF-1 [4]) | Activity (CCC-HPF-1 [5]) | Activity (LX-2 [6]) Dose-Dependent Effect | Activity (CCC-HPF-1 [7]) | Activity (LX-2 [8]) | Activity (CCC-HPF-1 [10]) | Activity (LX-2 [13]) Dose-Dependent Effect | Activity (CCC-HPF-1 [14]) | Activity (CCC-HPF-1 [15]) | Activity (LX-2 [17]) | Activity (LX-2 [18]) | Activity (CCC-HPF-1 [19]) | Activity (CCC-HPF-1 [20]) Dose-Dependent Effect | Activity (LX-2 [22]) | Activity (CCC-HPF-1 [23]) Dose-Dependent Effect | Activity (LX-2 [24]) | Activity (LX-2 [25]) | Activity (LX-2 [27]) | Activity (CCC-HPF-1 [28])
7.51 nM: IC50 (Autotaxin [21])
inactive: Activity (CCC-HPF-1 [2]) | Activity (CCC-HPF-1 [9]) | Activity (LX-2 [12]) | Activity (LX-2 [16])
Non-Toxic: Activity (CCC-HPF-1 [1]) | Activity (LX-2 [11])
9: Ratio IC50 (Autotaxin [26])
